Measurements as given in PubChem BioAssay (NCI).
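How tested: cells in 96-well plates exposed to compound for 48 hours at five concentrations. At the TGI there is no net growth.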

Assays:
Assay in all cases: NCI-60 cell line screen, 48 h
HOP-92 NSCLC = tested on: HOP-92 NSCLC
DMS 114 small cell lung = tested on: DMS 114 small cell lung
U251 CNS = tested on: U251 CNS
NCI-H226 lung = tested on: NCI-H226 lung
OVCAR-5 ovarian = tested on: OVCAR-5 ovarian
UO-31 renal = tested on: UO-31 renal
SR leukemia = tested on: SR leukemia
ACHN renal = tested on: ACHN renal
EKVX NSCLC = tested on: EKVX NSCLC
NCI-H23 lung = tested on: NCI-H23 lung
HCT-15 colon = tested on: HCT-15 colon
SF-295 CNS = tested on: SF-295 CNS
HCC-2998 colon = tested on: HCC-2998 colon
HOP-18 NSCLC = tested on: HOP-18 NSCLC
M14 melanoma = tested on: M14 melanoma
K-562 leukemia = tested on: K-562 leukemia
NCI-H460 lung = tested on: NCI-H460 lung
RXF 393 renal = tested on: RXF 393 renal
M19-MEL melanoma = tested on: M19-MEL melanoma
XF 498 CNS = tested on: XF 498 CNS
CCRF-CEM leukemia = tested on: CCRF-CEM leukemia
HT29 colon = tested on: HT29 colon
SNB-19 CNS = tested on: SNB-19 CNS
SW-620 colon = tested on: SW-620 colon
HCT-116 colon = tested on: HCT-116 colon
TK-10 renal = tested on: TK-10 renal
HOP-62 NSCLC = tested on: HOP-62 NSCLC
UACC-62 melanoma = tested on: UACC-62 melanoma
SK-MEL-28 melanoma = tested on: SK-MEL-28 melanoma
SNB-78 CNS = tested on: SNB-78 CNS
KM20L2 colon = tested on: KM20L2 colon
KM12 colon = tested on: KM12 colon
SF-268 CNS = tested on: SF-268 CNS
DMS 273 small cell lung = tested on: DMS 273 small cell lung
DLD-1 colon = tested on: DLD-1 colon
A498 renal = tested on: A498 renal
SK-MEL-5 melanoma = tested on: SK-MEL-5 melanoma
SNB-75 CNS = tested on: SNB-75 CNS
IGROV1 ovarian = tested on: IGROV1 ovarian
OVCAR-3 ovarian = tested on: OVCAR-3 ovarian
SN12C renal = tested on: SN12C renal
CAKI-1 renal = tested on: CAKI-1 renal
A549 NSCLC = tested on: A549 NSCLC
COLO 205 colon = tested on: COLO 205 colon
NCI-H522 lung = tested on: NCI-H522 lung
UACC-257 melanoma = tested on: UACC-257 melanoma
MALME-3M melanoma = tested on: MALME-3M melanoma
RPMI-8226 leukemia = tested on: RPMI-8226 leukemia
LOX IMVI melanoma = tested on: LOX IMVI melanoma
SK-OV-3 ovarian = tested on: SK-OV-3 ovarian
SK-MEL-2 melanoma = tested on: SK-MEL-2 melanoma
OVCAR-8 ovarian = tested on: OVCAR-8 ovarian
SF-539 CNS = tested on: SF-539 CNS
MOLT-4 leukemia = tested on: MOLT-4 leukemia
HL-60(TB) leukemia = tested on: HL-60(TB) leukemia
LXFL 529 NSCLC = tested on: LXFL 529 NSCLC
786-0 renal = tested on: 786-0 renal

SMILES: O=c1c(-c2cccc3ccccc23)c(-c2cccc3ccccc23)c1=O
- TGI (HOP-92 NSCLC): 39.4 µM
- TGI (DMS 114 small cell lung): 13.2 µM
- TGI (U251 CNS): 18.4 µM
- TGI (NCI-H226 lung): 6.51 µM
- TGI (OVCAR-5 ovarian): > 84.9 µM
- TGI (UO-31 renal): > 100 µM
- TGI (SR leukemia): > 32 µM
- TGI (ACHN renal): > 100 µM
- TGI (EKVX NSCLC): > 39.4 µM
- TGI (NCI-H23 lung): 9.27 µM
- TGI (HCT-15 colon): > 52.9 µM
- TGI (SF-295 CNS): 2820 nM
- TGI (HCC-2998 colon): 4.95 µM
- TGI (HOP-18 NSCLC): > 100 µM
- TGI (M14 melanoma): 8.51 µM
- TGI (K-562 leukemia): > 33.3 µM
- TGI (NCI-H460 lung): 4 µM
- TGI (RXF 393 renal): 45.7 µM
- TGI (M19-MEL melanoma): > 100 µM
- TGI (XF 498 CNS): 99 µM
- TGI (CCRF-CEM leukemia): > 50 µM
- TGI (HT29 colon): 3.03 µM
- TGI (SNB-19 CNS): 61 µM
- TGI (SW-620 colon): 58.9 µM
- TGI (HCT-116 colon): 37.6 µM
- TGI (TK-10 renal): > 100 µM
- TGI (HOP-62 NSCLC): 49.1 µM
- TGI (UACC-62 melanoma): > 100 µM
- TGI (SK-MEL-28 melanoma): > 100 µM
- TGI (SNB-78 CNS): > 100 µM
- TGI (KM20L2 colon): 1590 nM
- TGI (KM12 colon): 21.1 µM
- TGI (SF-268 CNS): > 53.7 µM
- TGI (DMS 273 small cell lung): 13.2 µM
- TGI (DLD-1 colon): > 100 µM
- TGI (A498 renal): 18.1 µM
- TGI (SK-MEL-5 melanoma): 40 µM
- TGI (SNB-75 CNS): 4.07 µM
- TGI (IGROV1 ovarian): > 100 µM
- TGI (OVCAR-3 ovarian): 11.6 µM
- TGI (SN12C renal): > 100 µM
- TGI (CAKI-1 renal): > 100 µM
- TGI (A549 NSCLC): 12 µM
- TGI (COLO 205 colon): 1640 nM
- TGI (NCI-H522 lung): 3.12 µM
- TGI (UACC-257 melanoma): > 39.6 µM
- TGI (MALME-3M melanoma): > 86.2 µM
- TGI (RPMI-8226 leukemia): > 100 µM
- TGI (LOX IMVI melanoma): 27.3 µM
- TGI (SK-OV-3 ovarian): 26.1 µM
- TGI (SK-MEL-2 melanoma): > 78.2 µM
- TGI (OVCAR-8 ovarian): 13.6 µM
- TGI (SF-539 CNS): 4.75 µM
- TGI (MOLT-4 leukemia): > 45.2 µM
- TGI (HL-60(TB) leukemia): 4.87 µM
- TGI (LXFL 529 NSCLC): > 85 µM
- TGI (786-0 renal): 12.7 µM
